Here are results for 89 molecules from the SangsterLogP compilation.

In turn, `COc1ccc2c3c1O[C@H]1[C@@H](O)C=C[C@H]4[C@@H](C2)N(C)CC[C@@]341` came in with a log partition coefficient (logP) of 1.19.

With `C=CBr`, the logP is 1.57. Under `CNC(=O)Oc1cccc(C#N)c1` stands 0.97; under `CS(=O)(=O)c1ccccc1`, 0.5. Take `CC(N)C(=O)O` (racemic): the log partition coefficient (logP) was -2.96.

`c1ccc2[nH]nnc2c1` showed a lipophilicity (logP) of 1.44.

Consider `Nc1ccc(S(=O)(=O)c2ccc(N)cc2)cc1`, for which the logP turned out to be 0.97. Under `COc1cccc(C=O)c1O` stands 1.37; under `CNC(=O)Oc1ccc(OC)cc1`, 1.2; under `O=C(O)c1ccccc1O`, 2.26. Next, `CC(=O)C(C#N)=NNc1ccc(SC(F)(F)F)cc1`: 5.04. With `O=[N+]([O-])c1ccc2c(c1)c([N+](=O)[O-])cc[n+]2[O-]`, the log partition coefficient (logP) was found to be 0.9.

`CCC#N` yielded a logP of 0.16. Under `CC(C)C[C@H](N)C(=O)O` stands -1.52. Next, `Cc1ccc2cc(C)c(C)cc2c1`: 4.73; `OCCCCCc1ccncc1`: 1.39. Next, `CCN(CC)CCNC(=O)c1ccc(N)cc1`: 0.88; `NC(=O)/C=C/c1ccccc1`: 1.43. As for `c1ccnnc1`, the lipophilicity (logP) is -0.72. Under `CC(=O)N(C)c1ccccc1` stands 1.12; under `CN`, -0.57. Under `CSCC[C@H](N)C(=O)O` stands -1.87; under `NC(=O)CCCc1cccnc1`, -0.08; under `O=C(O)CCCc1ccccc1`, 2.42.

`CN(C)CCC(c1ccc(Cl)cc1)c1ccccn1` (centres undefined) came in with a log partition coefficient (logP) of 3.38. Under `CC1=c2[nH]c3c(c2CCN1)C=CC(=O)C=3` stands 2.19; under `Nc1ccccn1`, 0.48; under `O=C(O)c1ccc([N+](=O)[O-])cc1`, 1.89.

In turn, `CCCCCl` yielded a logP of 2.64. Under `CF` stands 0.51. Next, `Nc1ccn([C@H]2C[C@H](O)[C@@H](CO)O2)c(=O)n1`: -1.77; `O=[N+]([O-])c1cccc2c1ccc[n+]2[O-]`: 0.49. With `Cc1cnccn1`, the log partition coefficient (logP) was 0.21. Next, `CCCc1cc(NC(C)=O)cc(CCC)c1O`: 3.16; `Oc1cccc(Br)c1`: 2.63.

`C1CN2CCC1CC2` displayed a log partition coefficient (logP) of 1.38. Next, `OCc1ccccc1O`: 0.73.

On to `O=[N+]([O-])c1ccc(O)c([N+](=O)[O-])c1`, for which the logP is 1.67.

In the case of `CC(=O)c1ccccn1`, the logP is 0.85. The molecule `CCCC(C)C1(CC)C(=O)NC(=S)NC1=O` (centres undefined) had a log partition coefficient (logP) of 2.85. Next, `N=c1[nH]c(=O)c2ncn([C@@H]3C=C[C@@H](CO)O3)c2[nH]1`: -1.21; `Clc1ccccc1Cl`: 3.43. Molecule `CNC(=O)Oc1ccc(C)c(C)c1` had a log partition coefficient (logP) of 2.09. Turning to `NNC(=O)c1ccnc(F)c1`, the lipophilicity (logP) is -0.11. The molecule `CCC1(CCC(C)C)C(=O)NC(=O)NC1=O` gave a log partition coefficient (logP) of 2.07. Next, `O=CO`: -0.54. The molecule `Brc1cccnc1` showed a log partition coefficient (logP) of 1.6. `NS(=O)(=O)c1ccc(Cl)c(Cl)c1`: the log partition coefficient (logP) is 1.44. `CSc1nnc(-c2ccccc2)c(=O)n1N`: the logP stood at 1.66. Next, `CNC(=O)Oc1ccccc1OC(C)C`: 1.52; `Oc1c(Br)cc(Br)cc1Br`: 4.13.

As for `N#C/C(=C\c1ccccc1)C(N)=O`, the logP worked out at 1.56. Under `O=C(CCNNC(=O)c1ccncc1)NCc1ccccc1` stands 0.87; under `C1CCNC1`, 0.46. Under `CCN1CCCC1CNC(=O)c1cc(S(=O)(=O)CC)ccc1OC` (centres undefined) stands 1.06.

In turn, `Nc1cccc(Cl)c1` came in with a logP of 1.88.

In the case of `Nc1nc(O)c2ncn([C@H]3CC[C@@H](CO)O3)c2n1`, the logP is -1.01. Under `CCCC(C)C1(CC)C(=O)NC(=O)NC1=O` (centres undefined) stands 2.1. Molecule `C=CCBr` yielded a log partition coefficient (logP) of 1.79. Next, `N#Cc1ccccc1`: 1.56; `CO`: -0.77; `C#C[C@]1(O)CC[C@H]2[C@@H]3CCc4cc(O)ccc4[C@H]3CC[C@@]21C`: 3.67. Under `Brc1nc(Br)c(Br)[nH]1` stands 1.96; under `O=C(O)c1cccc(O)c1`, 1.5. Next, `O=C(O)c1cc(Br)ccc1O`: 3.23; `CC(=O)c1ccc(O)cc1`: 1.35; `Nc1ccncc1`: 0.26. Molecule `OCCCc1ccccc1` yielded a logP of 1.88. With `CNC(=O)Oc1cccc(I)c1`, the logP worked out at 2.52. Under `O=C1C=CC(=NO)C=C1` stands 1.08.

For the molecule `C=CCOc1ccc(CC(=O)O)cc1Cl`, the log partition coefficient (logP) is 2.48. With `COc1ccc(OC)c(CC(C)N)c1` (centres undefined), the logP is 1.72. Under `COc1ccc2[nH]ccc2c1` stands 2.06; under `C(=C\c1ccccc1)/c1ccccc1`, 4.81.

As to `O=C1NC(=O)C(c2ccccc2)(c2ccccc2)C(=O)N1`, the logP amounted to 1.96.

Take `C=CCN1CC[C@]23c4c5ccc(O)c4O[C@H]2[C@@H](O)C=C[C@H]3[C@H]1C5`: the log partition coefficient (logP) amounted to 1.86. Under `CC(=O)Nc1ccc(Cl)cc1` stands 2.09; under `NC(=O)C1(N2CCCCC2)CCN(CCCC(=O)c2ccc(F)cc2)CC1`, 2.02; under `NC(=O)NO`, -1.8. Turning to `OCCN1CCN(CC/C=C2\c3ccccc3Sc3ccc(C(F)(F)F)cc32)CC1`, the log partition coefficient (logP) stood at 4.51. Next, `Cc1cn([C@H]2CC[C@@H](CO)O2)c(=O)[nH]c1=O`: -0.6. `COc1ccc(C(=O)O)cc1` had a logP of 1.96. For `Nc1nc2c(ncn2[C@H]2C[C@H](O)[C@@H](CO)O2)c(=S)[nH]1`, the logP was -0.79. In turn, `c1ccoc1` returned a logP of 1.34. Under `NC(=O)CCCNC(=C1C=C(F)C=CC1=O)c1ccc(Cl)cc1` stands 3.06. Under `CC(=O)c1ccc(Cl)cc1` stands 2.32. Turning to `Cc1cc(C)cc(O)c1`, the logP came to 2.35. On to `O=C1C=C(Cl)C(=O)c2ccccc21`, for which the logP was 2.29.

In the case of `FC(F)(F)c1nc2cc(Cl)c(Cl)cc2[nH]1`, the lipophilicity (logP) amounted to 3.49.

In general, logP refers to a log measure of how a compound divides between an organic and an aqueous phase.
